Data on eight compounds can be found in patent US20210380548A1, “Fused [1,2,4]Thiadiazine Derivatives Which Act as KAT Inhibitors of the MYST Family” (CTxT Pty Limited, priority 2017, published 2021).

Molecules are shown by their SMILES.

Assay [1] has as its target T1, HBO-KAT7 (Homo sapiens, UniProt O95251).
T1 construct: encoding amino acid residues 325 to 611 (Uniprot 095251-1) of human KAT7; made in house; host or cells: E. coli BL21 DE3 RIL
Put plainly: Acetyltransferase biochemical assay (AlphaScreen), KAT7. Particulars: Table 3 (HBO-KAT7); 0.4 μM Acetyl coenzyme A, histone H3.1, 40 nM enzyme. (In general: In Alpha technology, singlet oxygen from a donor bead excites a nearby acceptor bead.)

Assay [2] deals with T2, MOF-KAT8 (Homo sapiens, UniProt Q9H7Z6).
T2 sequence (Q9H7Z6 177-447): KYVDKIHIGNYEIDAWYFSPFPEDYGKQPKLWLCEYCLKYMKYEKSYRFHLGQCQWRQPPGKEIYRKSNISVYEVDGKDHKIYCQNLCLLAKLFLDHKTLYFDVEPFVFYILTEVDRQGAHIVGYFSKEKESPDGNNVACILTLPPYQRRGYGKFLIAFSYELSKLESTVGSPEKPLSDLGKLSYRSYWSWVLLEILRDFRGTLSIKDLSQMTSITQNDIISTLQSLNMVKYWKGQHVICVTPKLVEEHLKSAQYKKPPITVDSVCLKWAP
Put plainly: Acetyltransferase biochemical assay (AlphaScreen), KAT8. To be noted: Table 4 (MOF-KAT8); 0.4 μM Acetyl coenzyme A, histone H4, 20 nM enzyme.

Another assay concerns the target T3, MOZ-KAT6A (Homo sapiens, UniProt Q92794, A567V).
T3 construct: encoding amino acid residues 507 to 778 (Uniprot Q92794-1) of human KAT6A; made in house; host or cells: E. coli BL21 DE3
Put plainly: Revised Acetyltransferase Biochemical Assay, KAT6A. Particulars: Table 8 (MOZ-KAT6A), 1 μM Acetyl coenzyme A.

Assay [3] has as its target T1, HBO-KAT7. As to the kind of experiment: Revised Acetyltransferase Biochemical Assay, KAT7. To be noted: Table 9 (HBO-KAT7), 1 μM Acetyl coenzyme A.
Another assay addresses T4, TIP60-KAT5 (Homo sapiens, UniProt Q92993).
T4 construct: encoding amino acid residues 2 to 461 (Uniprot Q92993-2) of human KAT5 isoform; made in house; host or cells: E. coli BL21 DE3
As to the kind of experiment: Revised Acetyltransferase Biochemical Assay, KAT5. To be noted: 10 nM KAT5, 1 μM AcCoA, 100 nM histone H4, 90 min.

Assay [4] relates to histone H3 Lysine 14 acetylation (HBO1 mediated) in U2OS cells. Put plainly: Histone H3 Lysine 14 Acetylation Biomarker Assay (384-well, U2OS). The class given is cell-based. To be noted: Homo sapiens, serum free medium, 24 hours incubation. The procedure: Compounds may be tested for their ability to inhibit acetylation of the histone H3 Lysine 14 (which is HBO1 mediated) marker in the following assay:
The cell line U2OS was seeded at a density of 3,000 cells per well in 384-well optical quality tissue culture plates in RPMI medium supplemented with 10% foetal bovine serum and 10 mM Hepes. The cells were allowed to adhere for 24 hours under standard culture conditions (37 degree Celsius, 5% CO2). At the end of this period the cells were washed with serum free medium. Compound dilutions prepared in DMSO were added to the serum free medium, with negative control wells reserved for treatment with DMSO only and 100% inhibition positive controls receiving a potent inhibitor compound (e.g. (Z)-4-fluoro-N-((3-hydroxyphenyl)sulfonyl)-5-methyl-[1,1′-biphenyl]-3-carbohydrazonic acid) at 10 μM concentration. After incubation for 24 hours, the cells were fixed with 4% formaldehyde in PBS for 15 minutes at room temperature, washed with phosphate buffer saline and blocked with blocking buffer containing 0.2% TritonX100 and 2% BSA. Anti-H3K14ac specific antibody (Cell Signalling Technologies) in blocking buffer was added and incubated overnight at 4 degree Celsius. After washing, a secondary antibody labelled with AlexaFluor 488 dye (ThermoFisher) and Hoechst 33342 (1 μg/mL, Life Technologies) were added for 2 hours incubation at room temperature. Plates were washed and read on a
PerkinElmer Opera HCS high content imaging platform. Using a Columbus image analysis pipeline, individual nuclei were located by Hoechst 33342 stain and the acetylation level was calculated from the AlexaFluor 488-related intensity in the same area. The resulting mean intensity per cell was converted to percent inhibition relative to controls on the same plate and the data fitted against a four-parameter logistic model to determine the 50% inhibitory concentration (IC50).

For assay [5], the system named is histone H2A.Z Lysine 7 acetylation (TIP60 mediated) in U2OS cells. As to the kind of experiment: H2A.Z Lysine 7 Acetylation Biomarker Assay (384-well, U2OS). The class given is cell-based. Particulars: Homo sapiens, serum free medium, 24 hours incubation. In outline:
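U2OS cells (3,000/well) were treated with compound for 24 h after a serum-free wash, then fixed. They were stained with anti-H2A.ZK7ac, an AlexaFluor 488 secondary and Hoechst. High-content imaging gave mean nuclear intensity per cell, converted to percent inhibition against on-plate controls, and IC50 came from a four-parameter logistic fit.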

Assay [6] deals with histone H3K23 acetylation (KATE mediated) in U2OS cells. As to the kind of experiment: Histone H3 Lysine 23 Acetylation Biomarker Assay (U2OS). The class given is cell-based. To be noted: Homo sapiens, 96 well, 24 hours incubation. As to the method:
Compounds may be tested for their ability to inhibit acetylation of the histone H3K23 marker, which is KATE mediated, in the following assay:
The cell line U2OS was seeded at a density of 9,000 cells per well in 96 well optical quality tissue culture plates in RPMI medium and 10% foetal bovine serum, and allowed to adhere for 24 hours under standard culture conditions (37 degree Celsius, 5% CO2). At the end of this period the medium was aspirated. Compound dilutions prepared in DMSO were added to medium, with negative control wells reserved for treatment with DMSO only and 100% inhibition positive controls receiving a potent inhibitor compound (e.g. cas 2055397-28-7, benzoic acid, 3-fluoro-5-(2-pyridinyl)-, 2-[(2-fluorophenyl)sulfonyl]hydrazide) (Baell, J., Nguyen, H. N., Leaver, D. J., Cleary, B. L., Lagiakos, H. R., Sheikh, B. N., Thomas. T. J., Aryl sulfonohydrazides, WO2016198507A1, 2016) at 10 μM concentration and 200 μL transferred to the cells. After incubation for 24 hours, the cells were fixed with 3.7% formaldehyde in PBS for 20 minutes at room temperature, washed (5×5 minutes) with phosphate buffer saline containing 0.1% Tween 20 and blocked with Odyssey blocking buffer (LI-COR, Lincoln, Nebr.) containing 0.1% TritonX100. Anti-H3K23ac specific antibody (Abcam ab177275) in Odyssey blocking buffer containing 0.1% Tween 20 was added and incubated for 16 hours at 4 degree Celsius. After washing (as above), a secondary antibody labelled with Alexa647 dye (LifeTechnologies) and Hoechst 33342 (1 μg/mL, SigmaAldrich) were added for 1 hour incubation. Plates were washed as previously and read on a PerkinElmer Phenix high content imaging platform. Using a Columbus image analysis pipeline, individual nuclei were located by Hoechst 33342 stain and the acetylation level was calculated from the Alexa647-related intensity in the same area. The resulting mean intensity per cell was directly converted to percent inhibition relative to controls on the same plate and the data fitted against a four-parameter logistic model to determine the 50% inhibitory concentration (IC50).

For assay [7], the target named is T2, MOF-KAT8. Put plainly: Revised Acetyltransferase Biochemical Assay, KAT8.

Broadly, the IC50 is the concentration that inhibits the measured activity by half. A lower IC50 goes with higher potency.

T3 sequence (Q92794 507-778 A567V limits assumed): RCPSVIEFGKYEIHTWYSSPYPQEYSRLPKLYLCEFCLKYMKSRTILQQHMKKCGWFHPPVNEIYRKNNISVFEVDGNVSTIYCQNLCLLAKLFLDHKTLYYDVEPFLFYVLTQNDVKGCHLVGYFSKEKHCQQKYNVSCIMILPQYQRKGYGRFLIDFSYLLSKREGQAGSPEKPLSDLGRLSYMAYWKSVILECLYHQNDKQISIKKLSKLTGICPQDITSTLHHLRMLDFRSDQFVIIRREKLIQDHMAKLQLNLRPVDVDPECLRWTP
T1 sequence (O95251 with tags, fused parts or gaps): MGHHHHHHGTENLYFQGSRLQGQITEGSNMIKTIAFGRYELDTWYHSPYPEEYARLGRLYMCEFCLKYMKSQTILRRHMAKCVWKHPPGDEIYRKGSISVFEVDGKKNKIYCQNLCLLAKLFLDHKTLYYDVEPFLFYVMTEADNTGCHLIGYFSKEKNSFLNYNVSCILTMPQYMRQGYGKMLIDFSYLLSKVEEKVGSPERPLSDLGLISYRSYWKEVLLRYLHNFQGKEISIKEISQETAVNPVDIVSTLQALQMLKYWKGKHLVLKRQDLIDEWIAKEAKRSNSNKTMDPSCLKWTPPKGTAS
T4 sequence (Q92993 2-461 isoform Q92993-2): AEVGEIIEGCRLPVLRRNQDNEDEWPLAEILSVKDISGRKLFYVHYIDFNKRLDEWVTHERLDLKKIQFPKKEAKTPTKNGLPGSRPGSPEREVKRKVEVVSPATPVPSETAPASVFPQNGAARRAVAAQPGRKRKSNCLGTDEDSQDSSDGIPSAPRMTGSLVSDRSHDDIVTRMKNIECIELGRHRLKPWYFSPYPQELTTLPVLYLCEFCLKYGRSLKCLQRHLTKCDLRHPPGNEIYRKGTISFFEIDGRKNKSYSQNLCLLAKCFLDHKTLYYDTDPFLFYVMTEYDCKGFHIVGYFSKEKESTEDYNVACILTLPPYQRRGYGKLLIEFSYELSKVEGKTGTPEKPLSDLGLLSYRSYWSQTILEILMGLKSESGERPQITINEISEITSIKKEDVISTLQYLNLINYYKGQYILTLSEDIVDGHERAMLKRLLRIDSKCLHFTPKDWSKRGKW

`O=C(NCC(F)(c1ccccc1)c1ncco1)C1=Nc2ccc(Cl)cc2S(=O)(=O)N1` (stereo not drawn) [Example 175]: the half-maximal inhibitory concentration (IC50) turned out to be 162 nM at HBO-KAT7 [1]; 29300 nM against MOF-KAT8 [2]; 13 nM against MOZ-KAT6A; 478 nM against HBO-KAT7 [3]; 311 nM against TIP60-KAT5; 1840 nM in assay [4]. Moreover, the IC50 in assay [5] turned out to be 11900 nM; in assay [6], 154 nM; against MOF-KAT8 [7], 30200 nM.
`O=C(NCC(c1cccc(O)c1)c1ncco1)C1=Nc2ccc(Cl)cc2S(=O)(=O)N1` (stereo not drawn) [Example 216, 7-Chloro-N-(2-(3-hydroxyphenyl)-2-(oxazol-2-yl)ethyl)-2H-benzo[e][1,2,4]thiadiazine-3-carboxamide 1,1-dioxide]: the IC50 worked out at 63 nM on HBO-KAT7 [1]; 64300 nM against MOF-KAT8 [2]; 28 nM at MOZ-KAT6A; 152 nM on HBO-KAT7 [3]; 506 nM against TIP60-KAT5; 14100 nM in assay [4]. Also, the concentration for half-maximal inhibition (IC50) amounted to 15900 nM in assay [5] and 58600 nM against MOF-KAT8 [7].
Take `Cc1cc(O)cc(C(CNC(=O)C2=Nc3ccc(I)cc3S(=O)(=O)N2)c2ncco2)c1` (stereo not drawn) [Example 222, N-(2-(3-Hydroxy-5-methylphenyl)-2-(oxazol-2-yl)ethyl)-7-iodo-2H-benzo[e][1,2,4]thiadiazine-3-carboxamide 1,1-dioxide]: the IC50 at MOZ-KAT6A came out at 131 nM; against HBO-KAT7 [3] it was 23 nM; against TIP60-KAT5, 149 nM; in [4], 437 nM; in [5] it was 1280 nM; in [6], 7150 nM.
Consider `O=C(NCC(F)(c1ccccc1)c1ncco1)C1=Nc2ccc(I)cc2S(=O)(=O)N1` (stereo not drawn) [Example 177], for which the IC50 against HBO-KAT7 [1] was 64 nM; on MOF-KAT8 [2] it was 6250 nM; on MOZ-KAT6A it was 4 nM; against HBO-KAT7 [3], 124 nM; against TIP60-KAT5, 23 nM; in [4], 1030 nM. Besides, the IC50 in assay [5] was determined as 1180 nM; in [6], 195 nM; against MOF-KAT8 [7], 8210 nM.
Regarding `O=C(NCC(c1ccccc1)c1n[nH]c(=O)o1)C1=Nc2ccc(I)cc2S(=O)(=O)N1` (stereo not drawn) [Example 186], the IC50 was 71500 nM against MOF-KAT8 [2]; 24 nM at MOZ-KAT6A; 1960 nM at HBO-KAT7 [3]; 734 nM against TIP60-KAT5; more than 40000 nM in assay [4]; more than 40000 nM in [5]. This compound also showed an IC50 in assay [6] of more than 10000 nM.
Turning to `COc1cccc(C(CNC(=O)C2=Nc3ccc(Cl)cc3S(=O)(=O)N2)c2ncco2)c1` (stereo not drawn) [Example 176, 7-chloro-N-(2-(3-methoxyphenyl)-2-(oxazol-2-yl)ethyl)-2H-benzo[e][1,2,4]thiadiazine-3-carboxamide 1,1-dioxide], the half-inhibitory concentration (IC50) against HBO-KAT7 [1] was determined as 207 nM; against MOF-KAT8 [2] it was 92900 nM; at MOZ-KAT6A, 76 nM; against HBO-KAT7 [3] it was 869 nM; at TIP60-KAT5 it was 5110 nM; in assay [4], 4430 nM. The IC50 in assay [5] was determined as 15400 nM; at MOF-KAT8 [7], 30200 nM.
Turning to `Cn1nc(-c2ccccc2CCNC(=O)C2=Nc3ccc(Cl)cc3S(=O)(=O)N2)oc1=O` [Example 193], the half-inhibitory concentration (IC50) was 493 nM against MOZ-KAT6A; 1940 nM on HBO-KAT7 [3]; 4170 nM on TIP60-KAT5; 31200 nM in assay [4]; more than 40000 nM in [5]; 9080 nM in [6].
Regarding `O=C(NCC(c1ncco1)c1ccccc1O)C1=Nc2ccc(I)cc2S(=O)(=O)N1` (stereo not drawn) [Example 228, N-(2-(2-Hydroxyphenyl)-2-(oxazol-2-yl)ethyl)-7-iodo-2H-benzo[e][1,2,4]thiadiazine-3-carboxamide 1,1-dioxide], the half-maximal inhibitory concentration (IC50) at MOF-KAT8 [2] was found to be 6520 nM; against MOZ-KAT6A, 7 nM; against HBO-KAT7 [3] it was 92 nM; against TIP60-KAT5, 111 nM; in assay [4] it was 3250 nM; in assay [5], 5710 nM. In addition, at MOF-KAT8 [7], the half-maximal inhibitory concentration (IC50) amounted to 9660 nM.
